Assay results published in article PMC11722180, “Structure–Activity Relationship Studies of Tetracyclic Pyrrolocarbazoles Inhibiting Heterotetrameric Protein Kinase CK2” (Molecules, 2024).
Structures can show the parent of a compound that is named as a salt.

What was measured:
CK2α/CK2β interaction = details: read-out: Inhibition of CK2α/CK2β interaction IC50; cited from earlier work
CK2α subunit = test system: CK2α subunit; parameters: method as in PMID 18553057; details: read-out: Inhibition of the kinase activity of the CK2α subunit IC50; cited from earlier work
CK2 = details: cited from earlier work; for IC50: ATP competitive, read-out: CK2 inhibition IC50
[1] = test system: human prostate tumor cell line; parameters: method as in PMID 39698287; details: cited from earlier work
[2] = biological target: T1, CK2α/CK2β interaction (human CK2α1–335, human CK2β1–193) (Homo sapiens, UniProt P68400); assay: Microscale thermophoresis (MST) assay of the CK2α/CK2β subunit interaction; assay type: binding; details: for Ki: MST, global analysis, KD′ = KD [1 + (ccompound/Ki)], n.s. = KD′ not significantly different from KD, read-out: Inhibition of CK2α/CK2β Interaction Ki
T1 construct: human CK2α^1–335; made in house
T1 sequence (P68400 1-335): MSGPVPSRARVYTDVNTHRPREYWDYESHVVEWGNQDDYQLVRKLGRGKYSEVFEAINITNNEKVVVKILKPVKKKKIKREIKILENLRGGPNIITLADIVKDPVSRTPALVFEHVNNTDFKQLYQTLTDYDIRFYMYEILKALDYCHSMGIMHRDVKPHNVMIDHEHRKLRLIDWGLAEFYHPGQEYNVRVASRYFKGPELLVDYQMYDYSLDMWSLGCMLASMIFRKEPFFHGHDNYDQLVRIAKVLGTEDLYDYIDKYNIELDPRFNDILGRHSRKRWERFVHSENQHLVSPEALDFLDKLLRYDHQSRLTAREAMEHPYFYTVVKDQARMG
Experimental: A microscale thermophoresis (MST) assay was used to determine the interaction of the CK2α and CK2β subunits. In this assay, a constant concentration of the fluorescently labeled CK2β subunit was added to increasing concentrations of the CK2α subunit and the thermophoretic shift was recorded, respectively. […] The same experiment was performed in the presence of 20, 50, or 100 µM of the test compounds (see Table 1). An increased KD′ value in the presence of the test compounds was evaluated as the inhibition of the association of the CK2α and CK2β subunits. The increased KD′ value was then transformed together with the employed concentration of the test compound into the Ki value for the inhibition of the CK2α/CK2β association (formula see Supporting Information).
The compounds were investigated at a final concentration of 20, 50, or 100 µM. […] Data analysis and statistical evaluation were conducted with GraphPad Prism v.6 for Windows (GraphPad Software, La Jolla, CA, USA, www.graphpad.com).

CK2 holoenzyme (CK2α2β2) = biological target: T2, CK2 holoenzyme (CK2α2β2) (Homo sapiens, UniProt P68400); assay: Capillary electrophoresis assay, inhibition of the CK2 holoenzyme kinase activity; assay type: biochemical
T2 construct: made in house; host or cells: E. coli BL21(DE3)
T2 sequence (P68400 whole entry): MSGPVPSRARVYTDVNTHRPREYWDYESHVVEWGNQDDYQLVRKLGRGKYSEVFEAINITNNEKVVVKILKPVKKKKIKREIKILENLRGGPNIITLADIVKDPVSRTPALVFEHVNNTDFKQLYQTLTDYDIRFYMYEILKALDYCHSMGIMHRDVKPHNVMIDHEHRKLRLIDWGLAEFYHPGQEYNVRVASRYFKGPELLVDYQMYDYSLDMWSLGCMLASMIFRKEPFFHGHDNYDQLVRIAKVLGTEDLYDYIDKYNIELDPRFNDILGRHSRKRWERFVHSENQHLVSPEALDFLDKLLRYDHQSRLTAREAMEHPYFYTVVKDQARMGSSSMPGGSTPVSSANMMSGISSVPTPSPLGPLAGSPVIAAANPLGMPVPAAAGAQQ
Experimental: The inhibition of the catalytic activity of the CK2 holoenzyme (CK2α2β2) was determined in an enzyme assay. In brief, the CK2 holoenzyme was incubated with the decapeptide […] and ATP. The amount of phosphorylated peptide (Ser7) was recorded by capillary electrophoresis (CE).
The capillary electrophoresis assay to determine the inhibition of the CK2 holoenzyme (CK2α2β2) was performed as described in refs. [40, 46]. The CK2 holoenzyme was recombinantly expressed in E. coli BL21(DE3) and purified according to the protocol by Grankowski et al.. Enzymatic activity was determined in the presence of 1 µg of CK2α2β2, 60 µM of ATP, and 114 µM of the substrate peptide […]. The assay buffer contained 60 mM NaCl and 10 mM MgCl2. Inhibition was determined in three independent experiments at a compound concentration of 10 µM, and the mean value and the standard deviation (SD) were calculated.

Kd [2] [µM] | Ki [2] [µM] | SMILES | IC50 (CK2) [µM] | further results
– | – | COc1cc([C@H]2c3c([nH]c4ccccc34)[C@@H](C(=O)N3C(=O)OC[C@@H]3Cc3ccccc3)[C@H]3C(=O)OC(=O)[C@@H]23)cc(OC)c1OC [(+)-4 (W16)] | – | IC50 (CK2α/CK2β interaction): […]; IC50 (CK2α subunit): 20 µM
– | – | NCc1cc(Cl)cc(-c2cccc3[nH]ccc23)c1 [CAM187] | – | Effect on kinase activity of CK2 (CK2): not significantly affected
– | – | O=C1CCc2c(oc3cc(Br)c(O)c(Br)c23)/C1=C/Nc1ccccc1 [2b] | 0.0058 | Antiproliferative activity [1]: showed antiproliferative activity
0.101 ± 0.004 | 6.1 | COC(=O)[C@H](Cc1c[nH]cn1)NC(=O)[C@H]1c2[nH]c3ccccc3c2[C@H](c2cc(OC)c(OC)c(OC)c2)[C@@H]2C(=O)NC(=O)[C@@H]21 [(+)-20a, Methyl N-{[(3aS,4R,10S,10aS)-1,3-dioxo-10-(3,4,5-trimethoxyphenyl)-1,2,3,3a,4,5,10,10a-octahydropyrrolo[3,4-b]carbazol-4-yl]carbonyl}-(S)-histidinate∙HCl] | – | IC50 (CK2 holoenzyme (CK2α2β2); CE assay, 60 µM ATP, 114 µM peptide […]): 2.5 µM; inhibition at 10 µM (CK2 holoenzyme (CK2α2β2); first screening, test compound concentration 10 µM, read-out: Enzyme inhibition of CK2 holoenzyme): > 50%
– | – | Cc1ccc(N/C=C2\C(=O)CCc3c2oc2c(Cl)c(Cl)c(O)cc32)cc1 [2a] | 0.029 | –
0.059 ± 0.025 | 32 | CCOC(=O)[C@H]1c2[nH]c3ccccc3c2[C@H](c2cc(OC)c(OC)c(OC)c2)[C@@H]2C(=O)NC(=O)[C@@H]21 (racemic) [(±)-9a, Ethyl (3aRS,4SR,10RS,10aRS)-1,3-dioxo-10-(3,4,5-trimethoxyphenyl9a)-1,2,3,3a,4,5,10,10a-octahydropyrrolo[3,4-b]carbazole-4-carboxylate] | – | –
